Key:
Setaria viridis = test: Pot experiment, indoor herbicidal activity (stem and leaf spray); assay type: in vivo; conditions: fresh weight inhibition rate, 45 g a.i/hm^2, stem and leaf spray, 21st day after applying
Description: (§1) 20 mg of the pyrimidinylthio-benzoate compound active pharmaceutical ingredients (APIs) is weighed with a 1/10,000 analytical balance, dissolved with acetone (or DMF or DMSO), and diluted with a 0.1% Tween-80 aqueous solution to a concentration of 45 g a.i/hm^2.
(§2) The test soil is quantitatively filled to 4/5 of the pot, and subirrigation method is adopted at a bottom of the pot to moisten the soil. The test weed seeds are sown on the soil surface and cultivated in a greenhouse. When the gramineous weeds grow to 3-4 leaf stage and broadleaf weeds grow to 4-6 leaf stage, a stem and leaf spray method is used for treatment. On the 21st day after applying the herbicide, the above-ground part is taken to weigh the fresh weight, and the fresh weight inhibition rate is calculated according to the formula. Fresh weight inhibition rate (%)=(control fresh weight−treated fresh weight)/control fresh weight×100%
(§3) Pyrithiobac-sodium is used as a positive control. The herbicidal activity of the target compound is screened. The dosage refers to the applied dosage of the pyrithiobac-sodium in the cotton field, i.e., 45 g a.i/hm^2, and the stem and leaf spray method is used for treatment.

Eleusine indica = test: as above; assay type: in vivo; conditions: fresh weight inhibition rate, 45 g a.i/hm^2, stem and leaf spray, 21st day after applying
Description: as §1, §2, §3

Chenopodium album = test: as above; assay type: in vivo; conditions: fresh weight inhibition rate, 45 g a.i/hm^2, stem and leaf spray, 21st day after applying
Description: as §1, §2, §3

Amaranthus retroflexus = test: as above; assay type: in vivo; conditions: fresh weight inhibition rate, 45 g a.i/hm^2, stem and leaf spray, 21st day after applying
Description: as §1, §2, §3

Echinochloa crusgalli = test: as above; assay type: in vivo; conditions: fresh weight inhibition rate, 45 g a.i/hm^2, stem and leaf spray, 21st day after applying
Description: as §1, §2, §3

Portulaca oleracea = test: as above; assay type: in vivo; conditions: fresh weight inhibition rate, 45 g a.i/hm^2, stem and leaf spray, 21st day after applying
Description: as §1, §2, §3

SMILES	melting point	Inhibition rate (%) Setaria viridis (Setaria viridis)	Inhibition rate (%) Eleusine indica (Eleusine indica)	Inhibition rate (%) Chenopodium album (Chenopodium album)	Inhibition rate (%) Amaranthus retroflexus (Amaranthus retroflexus)	Inhibition rate (%) Echinochloa crusgalli (Echinochloa crusgalli)	Inhibition rate (%) Portulaca oleracea (Portulaca oleracea)
COc1cc(OC)nc(Sc2cccc(Cl)c2C(=O)O/N=C(\C)c2ccccc2C(F)(F)F)n1 [D, (E)-1-(2-(trifluoromethyl)phenyl)ethan-1-one O-(2-chloro-6-((4,6-dimethoxypyrimidin-2-yl)thio)benzoyl)oxime]	82 to 85 °C	33.7%	52.4%	89.6%	80.2%	78.3%	69.2%
COc1cc(OC)nc(Sc2cccc(Cl)c2C(=O)O/N=C(\C)c2ccc(C)cc2)n1 [C, (E)-1-(p-tolyl)ethan-1-one O-(2-chloro-6-((4,6-dimethoxypyrimidin-2-yl)thio)benzoyl) oxime]	115 to 119 °C	39.3%	52.5%	95.8%	90.4%	37.5%	40.9%
COc1cc(OC)nc(Sc2cccc(Cl)c2C(=O)O/N=C(\C)c2cccc([N+](=O)[O-])c2)n1 [H, (E)-1-(3-nitrophenyl)ethan-1-one O-(2-chloro-6-((4,6-dimethoxypyrimidin-2-yl)thio)benzoyl)oxime]	155 to 159 °C	64.6%	88.5%	90.4%	100%	87.7%	85.9%
COc1cc(OC)nc(Sc2cccc(Cl)c2C(=O)O/N=C(\C)c2cccc(C)c2)n1 [B, (E)-1-(m-tolyl)ethan-1-one O-(2-chloro-6-((4,6-dimethoxypyrimidin-2-yl)thio)benzoyl) oxime]	84 to 88 °C	53.0%	53.0%	87.0%	93.5%	30.3%	60.7%
COc1cc(OC)nc(Sc2cccc(Cl)c2C(=O)O)n1 [Pyrithiobac-sodium, reference compound]	–	65.4%	44.7%	93.9%	95.2%	60.6%	96.8%
COc1cc(OC)nc(Sc2cccc(Cl)c2C(=O)O/N=C(\C)c2ccc(C(F)(F)F)cc2)n1 [F, (E)-1-(4-(trifluoromethyl)phenyl)ethan-1-one O-(2-chloro-6-((4,6-dimethoxypyrimidin-2-yl)thio)benzoyl)oxime]	86 to 90 °C	56.0%	80.7%	85.1%	97.5%	100%	84.4%
COc1cc(OC)nc(Sc2cccc(Cl)c2C(=O)O/N=C(\C)c2cccc(C(F)(F)F)c2)n1 [E, (E)-1-(3-(trifluoromethyl)phenyl)ethan-1-one O-(2-chloro-6-((4,6-dimethoxypyrimidin-2-yl)thio)benzoyl)oxime]	81 to 86 °C	27.8%	37.0%	82.4%	82.4%	79.5%	64.6%
COc1cc(OC)nc(Sc2cccc(Cl)c2C(=O)O/N=C(\C)c2ccccc2C)n1 [A, (E)-1-(o-tolyl)ethan-1-one O-(2-chloro-6-((4,6-dimethoxypyrimidin-2-yl)thio)benzoyl) oxime]	108 to 111 °C	31.3%	67.6%	100%	92.0%	35.6%	35.4%
COc1cc(OC)nc(Sc2cccc(Cl)c2C(=O)O/N=C(\C)c2ccccc2[N+](=O)[O-])n1 [G, (E)-1-(2-nitrophenyl)ethan-1-one O-(2-chloro-6-((4,6-dimethoxypyrimidin-2-yl)thio)benzoyl)oxime]	130 to 134 °C	60.3%	84.6%	95.7%	100%	90.4%	89.4%

The next lines start with results.

melting point	SMILES	Inhibition rate (%) Setaria viridis (Setaria viridis)	Inhibition rate (%) Eleusine indica (Eleusine indica)	Inhibition rate (%) Chenopodium album (Chenopodium album)	Inhibition rate (%) Amaranthus retroflexus (Amaranthus retroflexus)	Inhibition rate (%) Echinochloa crusgalli (Echinochloa crusgalli)	Inhibition rate (%) Portulaca oleracea (Portulaca oleracea)
125 to 129 °C	COc1ccc(/C(C)=N/OC(=O)c2c(Cl)cccc2Sc2nc(OC)cc(OC)n2)c(OC)c1 [M, (E)-1-(2,4-dimethoxyphenyl)ethan-1-one O-(2-chloro-6-((4,6-dimethoxypyrimidin-2-yl)thio)benzoyl)oxime]	77.2%	85.6%	100%	100%	100%	90.9%
102 to 105 °C	COc1cc(OC)nc(Sc2cccc(Cl)c2C(=O)O/N=C(\C)c2ccc(F)cc2)n1 [L, (E)-1-(4-fluorophenyl)ethan-1-one O-(2-chloro-6((4,6-dimethoxypyrimidin-2-yl)thio)benzoyl) oxime]	75.4%	87.0%	100%	100%	100%	90.5%
153 to 157 °C	COc1cc(OC)nc(Sc2cccc(Cl)c2C(=O)O/N=C(\C)c2ccc([N+](=O)[O-])cc2)n1 [I, (E)-1-(4-nitrophenyl)ethan-1-one O-(2-chloro-6-((4,6-dimethoxypyrimidin-2-yl)thio)benzoyl)oxime]	75.1%	89.7%	96.8%	100%	95.7%	94.5%
103 to 107 °C	COc1cc(OC)nc(Sc2cccc(Cl)c2C(=O)O/N=C(\C)c2cccc(F)c2)n1 [K, (E)-1-(3-fluorophenyl)ethan-1-one O-(2-chloro-6-((4,6-dimethoxypyrimidin-2-yl)thio)benzoyl) oxime]	72.9%	92.0%	100%	100%	100%	93.3%
87 to 91 °C	COc1cc(OC)nc(Sc2cccc(Cl)c2C(=O)O/N=C(\C)c2ccccc2F)n1 [J, (E)-1-(2-fluorophenyl)ethan-1-one O-(2-chloro-6-((4,6-dimethoxypyrimidin-2-yl)thio)benzoyl) oxime]	77.2%	90.3%	98.4%	100%	100%	90.2%
